# Publication PMC12643354, “From Oxygen to Tellurium: The Impact of the Chalcogen on Nucleophilicities and Basicities of Isochalcogenourea Catalysts” (Angewandte Chemie (International Ed. in English), 2025)
# Where two headings read alike, the source gives them in different places. Marks after values point to notes of the source that are not given here.
# Key:
# [1] = Lewis basicity LB from equilibrium constants (photometric titrations) with benzhydrylium ions as reference Lewis acids; format: physicochemical; conditions: in dichloromethane, 20 °C
# Method: (a) Lewis basicity. Previously, the Mayr group established a series of benzhydrylium ions as C‐centered Lewis acid references to construct a Lewis basicity scale in dichloromethane. Substituting experimentally determined equilibrium constants K (at 20 °C) and reported Lewis acidities LA for the benzhydrylium ions (Figure 7) in Equation (3) enables one to calculate the Lewis basicity (LB) of a Lewis base.^[ [121], [127] ^] (3) lgK(20^∘C)=LA+LB
# The reversibility of the formation of adducts 19 (Equation (4)), which was also apparent in the kinetics by significant positive intercepts in several of the k obs versus [IChU] plots (Supporting Information), provided the opportunity to probe the thermodynamics of the C‐N bond‐forming reactions of IChUs with benzhydrylium ions as the reference Lewis acids in more detail.^[ [95] ^] (4) IChU+Ar2CH^+(18)⇌Ar2CH-IChU^+(19)
# By assuming the validity of the Beer–Lambert law for dilute solutions, equilibrium constants K (L mol^−1) were determined in photometric titrations according to Equation (5) from the initial absorbance (A 0) of the benzhydrylium ions 18 and the absorbance at equilibrium (A, Equation 5), that is, after addition of a certain amount of an IChU.^[ [109], [110], [111], [112], [113], [114], [115], [119] ^] (5) K=[19]/[18]IChU=A0−A/AIChU
# [2] = Kinetics of IChU reactions with reference electrophile (pyr)2CH+ (stopped-flow photometry); format: physicochemical; conditions: E = −7.69, dichloromethane, 20 °C
# Description: (§1) In order to systematically investigate the influence of the chalcogen atom on the nucleophilicity of DHPB‐derived IChUs (Ch = O, S, Se, and Te), we utilized Mayr's benzhydrylium methodology.^[ [107] ^]
# (§2) In accordance with observations in previous studies on ITU reactivity,^[ [119] ^] mixing the strongly colored benzhydrylium tetrafluoroborates 18 with excess IChUs in dichloromethane gave rise to decolorization of the solutions due to the formation of isochalcogenouronium tetrafluoroborates 19, which are colourless (Figure 3a). Owing to reversibility of the C─N bond formation, generated adducts 19 from the IChU/benzhydrylium reactions were not isolated but characterized by ^1H, ^13C, and ^77Se NMR spectroscopy (the ^77Se nucleus is remarkably sensitive with observed changes of around 100 ppm when comparing the ^77Se resonances of free ISeUs with those of the corresponding selenouronium tetrafluoroborates^[ [95] ^]). The kinetics of the IChU reactions with the reference electrophiles 18 were traced by photometric methods using standard stopped‐flow techniques. To establish pseudo first‐order conditions and to secure a sufficient decay of the benzhydrylium's absorbance during the course of the reactions, the IChUs were employed at higher concentrations than the benzhydrylium ions. First‐order rate constants k obs (s^−1) were determined by fitting the mono‐exponential decay function in Equation (2) to the decreasing absorbance (A) of 18 during their reaction with the IChUs as exemplified for the reaction of ITeU3 with (ind)2CH^+ in Figure 3b. (2) A=A0e^−kobst+C […]
# (§3) First‐order rate constants k obs correlated linearly with the IChU concentration. Therefore, second‐order rate constants k 2 (L mol^−1 s^−1) were determined from the slope of the linear regression curves (Figure 3c ^[ [95] ^]). Second‐order rate constants k 2 for all kinetically investigated reactions of DHPB‐derived IChUs (Ch = O, S, Se, and Te) with benzhydrylium ions 18 are gathered in Table 1.
# (§4) Apart from CH2Cl2 also MeCN and THF are solvents that are commonly employed in reactions involving isochalcogenoureas. […]
# [3] = Brønsted basicity pKaH by chemical shift imaging NMR method in DMSO and MeCN
# Method: Recently, Wiskur's group reported potentiometrically determined pK aH values (that is, the pK a of the conjugate acids) of achiral ITUs based on the BTM and DHPB scaffolds in aqueous media.^[ [89], [128] ^] […] In this work, we applied this NMR spectroscopic method to determine the pK aH values of further IChUs in DMSO and MeCN (Supporting Information).
# First, a stock solution containing the analyte, two basic indicators and tetramethyl silane was prepared with the respective solvent (DMSO or acetonitrile).
# Then 5-10 mg of acid were weighed into a NMR tube and subsequently covered with glass beads.
# Figure S50: 5-10 mg of acid in Figure S51: Cover with 1 mm
# Afterwards, 550 μL of the stock solution was layered carefully over the glass beads and the acid. The sample is then put in a 28 °C water bath (for DMSO) for 20 - 24h or left on the bench at 22 °C (for acetonitrile) for 1.5 - 2 h and then the NMR measurement was carried out at 20 °C.
# Figure S52: Overlay the acid with the Figure S54: Visualized gradient after stock solution of two indicators and the 18h in DMSO (with Bromthymolblue) […]
# Figure S53: Development of gradients in temperated water S145 […]
# 13.4 Indicator and Acid Data
# Table S67: Limiting shifts (δH for the fully protonated and δL for the free base), pKas and abbreviations of indicators and acids in acetonitrile.
# Table S68: Limiting shifts (δH for the fully protonated and δL for the free base), pKas and abbreviations of indicators
# [4] = Kinetics of IChU reactions with reference electrophile (lil)2CH+ (stopped-flow photometry); format: physicochemical; conditions: E = −10.04, dichloromethane, 20 °C
# Description: as §1
# In accordance with observations in previous studies on ITU reactivity,^[ [119] ^] mixing the strongly colored benzhydrylium tetrafluoroborates 18 with excess IChUs in dichloromethane gave rise to decolorization of the solutions due to the formation of isochalcogenouronium tetrafluoroborates 19, which are colourless (Figure 3a). […] To establish pseudo first‐order conditions and to secure a sufficient decay of the benzhydrylium's absorbance during the course of the reactions, the IChUs were employed at higher concentrations than the benzhydrylium ions. First‐order rate constants k obs (s^−1) were determined by fitting the mono‐exponential decay function in Equation (2) to the decreasing absorbance (A) of 18 during their reaction with the IChUs as exemplified for the reaction of ITeU3 with (ind)2CH^+ in Figure 3b. […]
# First‐order rate constants k obs correlated linearly with the IChU concentration. Therefore, second‐order rate constants k 2 (L mol^−1 s^−1) were determined from the slope of the linear regression curves (Figure 3c ^[ [95] ^]). […]
# [5] = Kinetics of IChU reactions with reference electrophile (dma)2CH+ (stopped-flow photometry); format: physicochemical; conditions: E = −7.02, dichloromethane, 20 °C
# Description: as §1, §2, §3, §4
# [6] = Kinetics of IChU reactions with reference electrophile (ind)2CH+ (stopped-flow photometry); format: physicochemical; conditions: E = −8.76, dichloromethane, 20 °C
# Description: as §1, §2, §3, §4
# [7] = Mayr nucleophilicity parameters N and sN (benzhydrylium methodology, Mayr-Patz equation); format: physicochemical; conditions: dichloromethane, 20 °C
# Description: (1) Mayr-Patz Equation: lgk20^∘C=sN(N+E)
# The MPE is a linear‐free‐energy relationship that characterizes electrophiles by the electrophilicity parameter E and nucleophiles by the solvent‐dependent parameters N (nucleophilicity) and s N (sensitivity toward changes in the electrophile reactivity). By using the MPE (Equation (1)), the construction of comprehensive nucleophilicity and electrophilicity scales becomes possible, which facilitate the comparison of various classes of Lewis base organocatalysts.^[ [110], [111], [112], [113], [114], [115], [116], [117], [118], [119], [120] ^]
# as §1
# Figure 4 illustrates the linear correlations of the second‐order rate constants (lg k 2) with the electrophilicities E of Ar2CH^+ (18), which makes it possible to determine the Mayr nucleophilicity parameters N (and s N) for the DHPB‐derived IChUs IU3, ITU3, ISeU3, and ITeU3. […]
# Figure 4 Linear correlations of second‐order rate constants (lg k 2) for the reactions of IU3, ITU3, ISeU3, and ITeU3 with Ar2CH^+ 18 (in dichloromethane at 20 °C) with the electrophilicities E of 18. The slopes of the linear correlations equal the nucleophile‐dependent sensitivity parameter s N. Intercepts on the abscissa reflect the nucleophilicity parameter N (N = –E at lg k 2 = 0).
# [8] = design: method as in PMID 21568333; conditions: (pyr)2CH+, E = −7.69, dichloromethane, 20 °C; cited from earlier work
# [9] = in methanolic aqueous solution (1:5-mixture); cited from earlier work
# [10] = dichloromethane, 20 °C; cited from earlier work
# [11] = design: method as in PMID 21568333; conditions: (dma)2CH+, E = −7.02, dichloromethane, 20 °C; cited from earlier work
# [12] = design: method as in PMID 21568333; conditions: (ind)2CH+, E = −8.76, dichloromethane, 20 °C; cited from earlier work
# [13] = in dichloromethane, 20 °C; cited from earlier work
# [14] = design: method as in PMID 21568333; conditions: (thq)2CH+, E = −8.22, dichloromethane, 20 °C; cited from earlier work
smiles,measurement,setting,value
"c1ccc2c(c1)[Te]C1=NCCCN12 [ITeU3, TeDHPB]",Lewis basicity LB,[1],17.13
same,Second-order rate constant k2 exptl,[2],731000 M⁻¹ s⁻¹
same,Brønsted basicity pKaH(DMSO),[3]; in DMSO,11.0
same,Brønsted basicity pKaH(MeCN),[3]; in MeCN,19.7
same,Second-order rate constant k2 exptl,[4],19400 M⁻¹ s⁻¹
same,Second-order rate constant k2 exptl,[5],1.67e+06 M⁻¹ s⁻¹
same,Second-order rate constant k2 exptl,[6],127000 M⁻¹ s⁻¹
same,Nucleophile-specific sensitivity parameter sN,[7],0.65
same,Nucleophilicity parameter N,[7],16.63
"c1ccc2c(c1)SC1=NCCCN12 [ITU3, DHPB]",Second-order rate constant k2 exptl,[8],7.49 × 10^4 ^a) L mol^−1 s^−1
same,Brønsted basicity pKaH(H2O),[9],9.9 ^c)
same,Nucleophile-specific sensitivity parameter sN,[10],0.78
same,Nucleophilicity parameter N,[10],13.86
same,Second-order rate constant k2 exptl,[11],2.29 × 10^5 ^a) L mol^−1 s^−1
same,Second-order rate constant k2 exptl,[12],1.11 × 10^4 ^a) L mol^−1 s^−1
same,Lewis basicity LB,[13],15.39
same,Second-order rate constant k2 exptl,[14],2.07 × 10^4 ^a) L mol^−1 s^−1
